Assay results from the supplement of paper PMC13386468.

How the values were obtained:
Assay in all cases: IC50 for competition of protein binding to Kinobeads
Conditions in all cases: assay detail: Kinobeads competition in P. falciparum blood-stage lysate
UniProt Q8IIJ9 = target: UniProt Q8IIJ9
UniProt Q8IM66 = target: UniProt Q8IM66
UniProt Q7KQJ9 = target: UniProt Q7KQJ9
UniProt Q8I367 = target: UniProt Q8I367
UniProt C6KST5 = target: UniProt C6KST5
UniProt Q8IHU0 = target: UniProt Q8IHU0
UniProt Q8IJQ1 = target: UniProt Q8IJQ1
UniProt Q8IJT8 = target: UniProt Q8IJT8
UniProt Q8I488 = target: UniProt Q8I488
UniProt Q7KQK0 = target: UniProt Q7KQK0
UniProt Q8ILQ7 = target: UniProt Q8ILQ7
UniProt Q8IB60 = target: UniProt Q8IB60
UniProt Q8I1Q5 = target: UniProt Q8I1Q5
UniProt Q8IM32 = target: UniProt Q8IM32
UniProt Q7K6A9 = target: UniProt Q7K6A9
UniProt Q8IKK7 = target: UniProt Q8IKK7
UniProt Q8IJA9 = target: UniProt Q8IJA9
UniProt Q8I2G2 = target: UniProt Q8I2G2
UniProt Q8ID28 = target: UniProt Q8ID28
UniProt C6KT34 = target: UniProt C6KT34
UniProt Q8IKZ8 = target: UniProt Q8IKZ8
UniProt Q8II23 = target: UniProt Q8II23
UniProt Q8IIK8 = target: UniProt Q8IIK8
UniProt O96221 = target: UniProt O96221
UniProt Q8I487 = target: UniProt Q8I487
UniProt Q8ILP6 = target: UniProt Q8ILP6
UniProt Q8I535 = target: UniProt Q8I535
UniProt Q8IM10 = target: UniProt Q8IM10
UniProt O77358 = target: UniProt O77358
UniProt Q8IHR4 = target: UniProt Q8IHR4
UniProt O77323 = target: UniProt O77323
UniProt Q8IKU1 = target: UniProt Q8IKU1
UniProt P46468 = target: UniProt P46468
UniProt Q8I2X3 = target: UniProt Q8I2X3
UniProt Q8IAR6 = target: UniProt Q8IAR6
UniProt Q8I2W4 = target: UniProt Q8I2W4
UniProt Q8ILJ7 = target: UniProt Q8ILJ7
UniProt Q8I3Q6 = target: UniProt Q8I3Q6
UniProt Q8II24 = target: UniProt Q8II24
UniProt Q8ILC8 = target: UniProt Q8ILC8
UniProt Q8I566 = target: UniProt Q8I566
UniProt Q8IIG7 = target: UniProt Q8IIG7
UniProt Q8I3X2 = target: UniProt Q8I3X2
UniProt Q8II43 = target: UniProt Q8II43
UniProt Q8I502 = target: UniProt Q8I502
UniProt Q8IE22 = target: UniProt Q8IE22
UniProt Q8IES0 = target: UniProt Q8IES0
UniProt Q8I719 = target: UniProt Q8I719
UniProt Q7KQK3 = target: UniProt Q7KQK3
UniProt C6KT18 = target: UniProt C6KT18
UniProt Q7K6A4 = target: UniProt Q7K6A4
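Also: native unpurified kinases from lysate captured on beads bearing immobilized kinase inhibitors, with bead-bound kinases quantified by mass spectrometry across compound doses.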

Sequence of UniProt Q7KQJ9 (Q7KQJ9 whole entry): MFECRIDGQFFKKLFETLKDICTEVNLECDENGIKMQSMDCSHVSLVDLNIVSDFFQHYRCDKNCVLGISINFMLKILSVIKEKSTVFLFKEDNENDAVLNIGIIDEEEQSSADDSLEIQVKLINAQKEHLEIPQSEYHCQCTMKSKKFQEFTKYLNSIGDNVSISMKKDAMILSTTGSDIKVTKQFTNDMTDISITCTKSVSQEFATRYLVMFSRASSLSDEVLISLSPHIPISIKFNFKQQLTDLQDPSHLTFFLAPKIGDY
Sequence of UniProt Q8I719 (Q8I719 whole entry, looked up): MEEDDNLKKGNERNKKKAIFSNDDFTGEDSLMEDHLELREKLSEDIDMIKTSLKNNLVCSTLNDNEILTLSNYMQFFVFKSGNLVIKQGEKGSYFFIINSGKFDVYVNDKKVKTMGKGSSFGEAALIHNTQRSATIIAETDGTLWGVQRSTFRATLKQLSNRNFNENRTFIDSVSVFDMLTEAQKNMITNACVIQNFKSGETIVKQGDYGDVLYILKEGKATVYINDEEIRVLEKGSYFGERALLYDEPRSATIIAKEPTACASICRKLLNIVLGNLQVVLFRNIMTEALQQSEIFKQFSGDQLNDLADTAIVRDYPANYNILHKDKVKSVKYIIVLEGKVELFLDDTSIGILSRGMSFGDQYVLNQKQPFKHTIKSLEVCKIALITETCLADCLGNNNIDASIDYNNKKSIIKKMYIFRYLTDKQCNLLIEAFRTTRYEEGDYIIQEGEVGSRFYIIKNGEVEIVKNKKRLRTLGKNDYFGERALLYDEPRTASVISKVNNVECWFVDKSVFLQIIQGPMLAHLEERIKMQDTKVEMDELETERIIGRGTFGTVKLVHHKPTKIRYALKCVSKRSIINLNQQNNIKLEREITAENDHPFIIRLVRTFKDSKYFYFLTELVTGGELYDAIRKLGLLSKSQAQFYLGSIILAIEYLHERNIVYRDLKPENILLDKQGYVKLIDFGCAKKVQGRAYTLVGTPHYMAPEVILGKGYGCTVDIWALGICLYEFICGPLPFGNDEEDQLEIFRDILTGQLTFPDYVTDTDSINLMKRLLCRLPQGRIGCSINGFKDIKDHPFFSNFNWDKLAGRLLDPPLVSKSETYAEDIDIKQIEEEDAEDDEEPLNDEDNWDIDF
Sequence of UniProt P46468 (P46468 whole entry): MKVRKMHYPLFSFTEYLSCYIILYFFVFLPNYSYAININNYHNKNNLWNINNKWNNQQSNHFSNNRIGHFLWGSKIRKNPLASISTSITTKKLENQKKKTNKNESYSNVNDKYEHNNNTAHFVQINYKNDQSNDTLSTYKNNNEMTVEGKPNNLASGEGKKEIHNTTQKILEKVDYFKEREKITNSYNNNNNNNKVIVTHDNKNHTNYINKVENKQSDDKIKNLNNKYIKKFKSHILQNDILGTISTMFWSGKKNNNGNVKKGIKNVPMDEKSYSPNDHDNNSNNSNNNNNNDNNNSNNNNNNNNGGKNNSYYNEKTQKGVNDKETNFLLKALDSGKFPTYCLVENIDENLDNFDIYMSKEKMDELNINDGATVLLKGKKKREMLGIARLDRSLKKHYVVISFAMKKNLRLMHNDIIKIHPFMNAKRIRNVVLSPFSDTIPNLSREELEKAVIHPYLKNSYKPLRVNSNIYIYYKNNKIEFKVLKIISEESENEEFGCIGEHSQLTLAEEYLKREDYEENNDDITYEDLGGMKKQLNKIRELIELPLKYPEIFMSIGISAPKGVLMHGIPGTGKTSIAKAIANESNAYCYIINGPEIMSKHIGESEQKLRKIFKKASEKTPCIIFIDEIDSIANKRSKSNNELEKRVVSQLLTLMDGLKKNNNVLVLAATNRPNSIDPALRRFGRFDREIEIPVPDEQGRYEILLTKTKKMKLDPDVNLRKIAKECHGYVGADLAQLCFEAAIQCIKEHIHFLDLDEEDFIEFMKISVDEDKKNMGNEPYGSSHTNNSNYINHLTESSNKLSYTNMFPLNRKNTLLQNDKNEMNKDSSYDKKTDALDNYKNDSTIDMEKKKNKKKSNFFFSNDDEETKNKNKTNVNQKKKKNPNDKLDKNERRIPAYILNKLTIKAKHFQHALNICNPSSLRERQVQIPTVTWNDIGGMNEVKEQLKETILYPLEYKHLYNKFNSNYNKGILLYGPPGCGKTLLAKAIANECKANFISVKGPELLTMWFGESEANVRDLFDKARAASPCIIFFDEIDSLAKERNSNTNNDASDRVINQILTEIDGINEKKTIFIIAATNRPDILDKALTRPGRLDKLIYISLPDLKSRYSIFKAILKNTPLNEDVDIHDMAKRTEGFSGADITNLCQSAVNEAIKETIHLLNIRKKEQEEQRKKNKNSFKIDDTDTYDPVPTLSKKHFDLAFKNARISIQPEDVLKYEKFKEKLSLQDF
Sequence of UniProt Q8ILQ7 (Q8ILQ7 whole entry): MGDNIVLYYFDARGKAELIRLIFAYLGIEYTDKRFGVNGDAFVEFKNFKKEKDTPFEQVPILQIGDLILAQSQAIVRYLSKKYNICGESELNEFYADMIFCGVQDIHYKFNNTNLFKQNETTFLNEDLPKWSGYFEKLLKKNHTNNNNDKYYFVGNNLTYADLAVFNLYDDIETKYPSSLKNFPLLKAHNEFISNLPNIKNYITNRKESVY
Sequence of UniProt Q8IIJ9 (Q8IIJ9 whole entry): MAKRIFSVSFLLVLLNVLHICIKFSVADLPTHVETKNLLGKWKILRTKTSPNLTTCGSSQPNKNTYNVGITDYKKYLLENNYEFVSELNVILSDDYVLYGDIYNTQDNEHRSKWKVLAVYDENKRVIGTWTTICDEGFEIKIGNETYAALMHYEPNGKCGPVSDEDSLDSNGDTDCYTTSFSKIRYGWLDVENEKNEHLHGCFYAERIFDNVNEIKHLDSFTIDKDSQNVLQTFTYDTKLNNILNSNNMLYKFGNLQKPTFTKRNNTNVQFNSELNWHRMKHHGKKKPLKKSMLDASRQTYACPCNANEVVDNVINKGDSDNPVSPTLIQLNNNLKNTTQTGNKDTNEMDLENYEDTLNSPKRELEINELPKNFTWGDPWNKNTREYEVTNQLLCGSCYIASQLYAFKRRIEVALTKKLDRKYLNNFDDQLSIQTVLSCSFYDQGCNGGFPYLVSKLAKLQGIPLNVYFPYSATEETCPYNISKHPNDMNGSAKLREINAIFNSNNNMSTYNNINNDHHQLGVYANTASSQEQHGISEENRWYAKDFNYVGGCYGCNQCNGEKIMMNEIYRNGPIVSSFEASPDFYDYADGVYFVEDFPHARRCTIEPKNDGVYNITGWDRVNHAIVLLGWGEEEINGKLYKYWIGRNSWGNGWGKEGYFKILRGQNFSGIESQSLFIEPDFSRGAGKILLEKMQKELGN
Sequence of UniProt Q8IJA9 (Q8IJA9 whole entry): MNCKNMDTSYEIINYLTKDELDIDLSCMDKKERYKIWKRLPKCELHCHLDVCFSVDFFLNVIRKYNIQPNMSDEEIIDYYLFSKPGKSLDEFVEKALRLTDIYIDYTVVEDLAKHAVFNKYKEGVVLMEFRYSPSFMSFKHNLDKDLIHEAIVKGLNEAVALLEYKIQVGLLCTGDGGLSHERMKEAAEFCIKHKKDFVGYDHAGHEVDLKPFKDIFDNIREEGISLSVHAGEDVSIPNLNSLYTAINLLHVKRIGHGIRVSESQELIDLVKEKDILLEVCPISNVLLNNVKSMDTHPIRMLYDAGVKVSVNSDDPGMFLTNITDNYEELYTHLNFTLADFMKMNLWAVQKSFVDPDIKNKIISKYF
Sequence of UniProt Q8I566 (Q8I566 whole entry): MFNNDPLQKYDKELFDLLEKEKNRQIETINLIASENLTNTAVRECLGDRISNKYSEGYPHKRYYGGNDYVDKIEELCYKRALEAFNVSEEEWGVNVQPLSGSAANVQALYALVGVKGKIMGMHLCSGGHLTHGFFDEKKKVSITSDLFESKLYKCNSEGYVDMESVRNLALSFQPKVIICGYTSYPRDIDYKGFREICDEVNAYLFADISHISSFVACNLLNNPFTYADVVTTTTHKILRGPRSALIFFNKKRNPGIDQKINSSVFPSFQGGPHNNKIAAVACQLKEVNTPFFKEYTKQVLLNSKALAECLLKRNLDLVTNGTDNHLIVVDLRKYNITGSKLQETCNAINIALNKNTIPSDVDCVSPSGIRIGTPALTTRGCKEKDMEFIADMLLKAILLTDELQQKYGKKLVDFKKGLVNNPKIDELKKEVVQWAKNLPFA
Sequence of UniProt O77323 (O77323 whole entry): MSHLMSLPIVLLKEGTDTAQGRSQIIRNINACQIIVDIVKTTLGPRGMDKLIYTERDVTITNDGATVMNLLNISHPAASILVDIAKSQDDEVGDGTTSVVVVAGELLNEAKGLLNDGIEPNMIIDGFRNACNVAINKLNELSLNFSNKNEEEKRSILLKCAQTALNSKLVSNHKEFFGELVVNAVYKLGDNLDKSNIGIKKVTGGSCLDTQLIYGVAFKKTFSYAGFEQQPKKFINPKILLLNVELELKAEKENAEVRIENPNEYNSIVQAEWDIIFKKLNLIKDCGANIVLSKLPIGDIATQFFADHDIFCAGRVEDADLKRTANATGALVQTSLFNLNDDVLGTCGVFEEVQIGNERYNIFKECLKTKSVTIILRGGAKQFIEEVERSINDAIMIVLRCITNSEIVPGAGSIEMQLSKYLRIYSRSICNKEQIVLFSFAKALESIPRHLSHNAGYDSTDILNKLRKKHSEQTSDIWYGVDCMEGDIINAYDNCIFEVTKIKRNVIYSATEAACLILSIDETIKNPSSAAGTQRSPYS
Sequence of UniProt Q8I2X3 (Q8I2X3 whole entry): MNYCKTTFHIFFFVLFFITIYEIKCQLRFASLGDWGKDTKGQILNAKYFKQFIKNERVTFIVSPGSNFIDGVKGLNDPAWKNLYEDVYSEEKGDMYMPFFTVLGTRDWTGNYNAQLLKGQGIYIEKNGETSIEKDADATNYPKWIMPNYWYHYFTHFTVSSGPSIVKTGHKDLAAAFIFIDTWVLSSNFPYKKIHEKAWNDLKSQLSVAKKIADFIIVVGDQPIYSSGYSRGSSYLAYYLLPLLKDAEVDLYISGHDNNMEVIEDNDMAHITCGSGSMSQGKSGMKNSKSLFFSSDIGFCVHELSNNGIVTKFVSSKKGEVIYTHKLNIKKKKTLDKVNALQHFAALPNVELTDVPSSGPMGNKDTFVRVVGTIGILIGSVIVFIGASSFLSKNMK

## O=c1[nH]c2ccc(Cl)cc2c(NC2CN3CCC2CC3)c1-c1nc2ccccc2[nH]1 (stereo unspecified) [CHIR-124]
UniProt Q8IIJ9
  IC50: > 20 µM
UniProt Q8IM66
  IC50: > 20 µM
UniProt Q7KQJ9
  IC50: > 20 µM
UniProt Q8I367
  IC50: > 20 µM
UniProt C6KST5
  IC50: > 20 µM
UniProt Q8IHU0
  IC50: > 20 µM
UniProt Q8IJQ1
  IC50: > 20 µM
UniProt Q8IJT8
  IC50: > 20 µM
UniProt Q8I488
  IC50: > 20 µM
UniProt Q7KQK0
  IC50: 0.85 µM
UniProt Q8ILQ7
  IC50: > 20 µM
UniProt Q8IB60
  IC50: > 20 µM
UniProt Q8I1Q5
  IC50: > 20 µM
UniProt Q8IM32
  IC50: > 20 µM
UniProt Q7K6A9
  IC50: > 20 µM
UniProt Q8IKK7
  IC50: > 20 µM
UniProt Q8IJA9
  IC50: > 20 µM
UniProt Q8I2G2
  IC50: > 20 µM
UniProt Q8ID28
  IC50: > 20 µM
UniProt C6KT34
  IC50: > 20 µM
UniProt Q8IKZ8
  IC50: > 20 µM
UniProt Q8II23
  IC50: > 20 µM
UniProt Q8IIK8
  IC50: > 20 µM
UniProt O96221
  IC50: > 20 µM
UniProt Q8I487
  IC50: > 20 µM
UniProt Q8ILP6
  IC50: > 20 µM
UniProt Q8I535
  IC50: < 0.0823 µM
UniProt Q8IM10
  IC50: > 20 µM
UniProt O77358
  IC50: > 20 µM
UniProt Q8IHR4
  IC50: > 20 µM
UniProt O77323
  IC50: > 20 µM
UniProt Q8IKU1
  IC50: > 20 µM
UniProt P46468
  IC50: > 20 µM
UniProt Q8I2X3
  IC50: > 20 µM
UniProt Q8IAR6
  IC50: > 20 µM
UniProt Q8I2W4
  IC50: > 20 µM
UniProt Q8ILJ7
  IC50: > 20 µM
UniProt Q8I3Q6
  IC50: > 20 µM
UniProt Q8II24
  IC50: > 20 µM
UniProt Q8ILC8
  IC50: > 20 µM
UniProt Q8I566
  IC50: > 20 µM
UniProt Q8IIG7
  IC50: > 20 µM
UniProt Q8I3X2
  IC50: > 20 µM
UniProt Q8II43
  IC50: > 20 µM
UniProt Q8I502
  IC50: > 20 µM
UniProt Q8IE22
  IC50: > 20 µM
UniProt Q8IES0
  IC50: > 20 µM
UniProt Q8I719
  IC50: > 20 µM
UniProt Q7KQK3
  IC50: > 20 µM
UniProt C6KT18
  IC50: > 20 µM
UniProt Q7K6A4
  IC50: > 20 µM
